Holding throughout (format): physicochemical
Data set [1] can be described thus: hygroscopicity on exposure to 90% relative humidity in a moisture chamber. An excerpt:
(§1) Although in general the acid addition salts of 5,8,14-triazatetracyclo[10.3.1.0^2,11.0^4,9]-hexadeca-2(11),3,5,7,9-pentaene are all crystalline, the majority of those salts are so hygroscopic as to render them poor candidates for pharmaceutical formulation use. The citrate salt exists as a hydrate under ambient conditions, where as noted above, hydrate refers to a water content of between 1 and 5% water by weight in the crystal. […] The citrate salt hydrate Form A has been prepared under different conditions: […]

A short description of data set [2]: inertness towards common formulation excipients.
Data set [3] can be described thus: solid state stability (light, elevated temperature, high humidity challenges). As to conditions: in light, elevated temperatures and high humidity challenges.
Text: as §1

Data set [4] is described as follows: native pH in aqueous solution.
The next data set can be described thus: aqueous solubility.
Data set [5] is described as follows: water loss of Form A on drying (low humidity, elevated temperature). The procedure: Under low humidity and elevated temperature, Form A will lose water depending on the macroscopic crystalline form. Unmilled samples of Form A may be dried in a 45° C. vacuum oven for several days without significant water loss (<1% water loss). […] Under conditions of low humidity and heat, Form A will dehydrate completely or nearly so to form a distinct pseudomorph which maintains a crystalline lattice, referred to herein as Form B. Form B contains between 0 and 1% water by weight.
Form B of the citrate salt of 5,8,14-triazatetracyclo[10.3.1.0^2,11.0^4,9]-hexadeca-2(11),3,5,7,9-pentaene can also be prepared by drying the citrate salt hydrate of 5,8,14-triazatetracyclo[10.3.1.0^2,11.0^4,9]-hexadeca-2(11),3,5,7,9-pentaene. A number of means for drying the water from the crystal lattice may be employed. Form B may be prepared by reducing the particle size of Form A, via any technique known to those of skill in the art, including jet milling, mechanical milling, etc., and drying the reduce particle size citrate salt Form A under conditions sufficient to remove the water in the lattice. […] Vacuum drying at temperatures in the range of 20 to 60° C. will yield Form B in the course of 30 minutes to 10 hours.

Counter-ions that a name gives are not always drawn.

A word on the aqueous solubility: it is the dissolved amount per volume that the medium holds. What is called solubility is the dissolved amount per volume that the medium holds. Low values mean little dissolved substance, high ones much dissolved substance.

Turning to `c1cnc2cc3c(cc2n1)C1CNCC3C1` [Form A, Citrate Salt Hydrate of 5,8,14-Triazatetracyclo[10.3.1.0^2,11.0^4,9]-Hexadeca-2(11),3,5,7,9-Pentaene (Form A)], the “hygroscopicity (in words)” value in data set [1] was “only slightly hygroscopic”. The values for the hygroscopicity result in data set [1] (at 90% relative humidity) and in data set [1] (exposure to 90% relative humidity in a moisture chamber) were “approximately 0.6%” and “approximately 0.6 % wt/wt”, respectively. For the same compound, the “inertness towards common excipients used in pharmaceutical formulation” value in data set [2] is reported as “relative inertness towards common excipients”. In addition, the solid state stability entry in data set [3] is “excellent solid state stability”. For the same compound, the “native pH in aqueous solution” value in data set [4] amounted to 3.7. In addition, in “aqueous solubility”, the “aqueous solubility (in words)” value is given as “high aqueous solubility”. Also, the aqueous solubility in “aqueous solubility” (listed as citrate hydrate salt) came out at 110 mg/mL. In addition, the solubility in “aqueous solubility” (water) was above 100 mg/mL. The “water loss and regain (in words)” value in data set [5] (micronized samples, as humidity and temperature are varied) is “readily lose and regain water”. Moreover, the “time until water loss is seen” value in data set [5] (particle size reduced, at 45° C.) is reported as “less than 1 hour”. The compound further returned a water loss in data set [5] (unmilled samples, 45° C. vacuum oven for several days) below 1%.

These data come from patent US6787549B2, “Citrate salt of 5,8,14-triazatetracyclo[10.3.1.02,11.04,9]-hexadeca-2(11),3,5,7,9-pentaene and pharmaceutical compositions thereof” (Pfizer Inc., priority 2001, dated 2004).
